Source: patent US10214478B2, “Amantadine nitrate compounds with neural protective effect, and preparation and medical use thereof” (GUANGZHOU MAGPIE PHARMACEUTICALS CO., LTD., priority 2016, dated 2019)

system: primary cerebellum granule cells of rats; assay: Protective effects of compounds on primary cerebellum granule cells of rats (glutamate-induced excitotoxic injury, MTT); assay type: cell-based; settings: pre-protection 2 h, 200 iM glutamate 24 h, MTT cell viability; read-out: EC50, protective effects of the compounds on rat's nerve cells
Method: Isolated primary cerebellum granule cells of infant rats were inoculated in 96-well plates with 1.2×10^5/well by using 10% FBS+25 mM KCl+2 mM Glutamine+1% of double-antibody BME medium. After 24 hours, cytarabine with a final concentration of 10 iM was added to inhibit the proliferation of neurogliocyte cells. After the day 4, glucose with the final concentration of 5 mM was added every four days to complement energy metabolism and water evaporation of cells. The materials were placed in a cell incubator (37° C., 5% CO2) to be cultured for 10 days. […] After pre-protection for 2 h, 200 iM of glutamate was added to induce cell damage for 24 h, and then MTT was added to culture for 4 h. The supernatant fraction was sucked, and 150 iL of DMSO was added to each well for dissolving. After blending with shaking, the light absorption values under 570 nm wavelength was measured with a microplate reader, and the viability of cells was calculated. Cell viability (%)=absorbance of different groups/absorbance of the normal control group×100%.

| Structure (SMILES) | EC50 [µM] |
| --- | --- |
| CC12CC3CC(N)(C1)CC(O[N+](=O)[O-])(C3)C2 (stereo not shown) [NM-001] | 24.6 |
| CCC12CC3CC(N)(C1)CC(O[N+](=O)[O-])(C3)C2 (stereo not shown) [NM-003] | 15.4 |
| CCC12CC3CC(N)(C1)CC(CO[N+](=O)[O-])(C3)C2 (stereo not shown) [NM-004] | 8.12 |
| CCC12CC3CC(N)(C1)CC(CCCO[N+](=O)[O-])(C3)C2 (stereo not shown) [NM-005] | 6.06 |
| NC12CC3CC(CCO[N+](=O)[O-])(C1)CC(CCO[N+](=O)[O-])(C3)C2 [NM-009] | 5.2 |
| CC(CO[N+](=O)[O-])CC12CC3CC(N)(C1)CC(CC(C)CO[N+](=O)[O-])(C3)C2 (stereo not shown) [NM-012] | 9.3 |
| CCC12CC3(N)CC(CC)(C1)CC(O[N+](=O)[O-])(C3)C2 [YQW-036, reference compound] | 31.4 |
